The source of these data is ChEMBL document CHEMBL1145360, “Highly potent growth hormone secretagogues” (Bioorg Med Chem Lett, 2007).

Assay [1] in a line: Stimulation of growth hormone in rat pituitary cell. It counts as functional, cell-based. Particulars: pituitary gland cell.
Assay [2] concerns Canis familiaris. Put plainly: Effect on growth hormone release in Beagle dog assessed as increase of GH level at 0.25 mg/kg, po relative to basal level. In kind it is functional, Canis lupus familiaris.
The test system of assay [3] is Canis familiaris. Put plainly: Effect on growth hormone release in Beagle dog assessed as increase of GH level at 0.06 mg/kg, po relative to basal level. It counts as functional, Canis lupus familiaris.
Assay [4] concerns Canis familiaris. The experiment in a line: Effect on growth hormone release in Beagle dog assessed as increase of GH level at 0.01 mg/kg, iv relative to basal level. In kind it is functional, Canis lupus familiaris.
Assay [5] deals with Canis familiaris. The experiment in a line: Effect on growth hormone release in Beagle dog assessed as increase of GH level at 0.50 mg/kg, po relative to basal level. In kind it is functional, Canis lupus familiaris. Conditions: dose 0.5 mg/kg.

Regarding `C=CCNC(=O)[C@@H]1CC2(CCN(C(=O)[C@@H](CCCc3ccccc3)NC(=O)C(C)(C)N)CC2)c2ccccc21`, in assay [1], a half-maximal response (EC50) required 0.14 nM. That is a sub-nanomolar value.

For `CC(C)(N)C(=O)N[C@H](CCCc1ccccc1)C(=O)N1CCC2(CC1)C[C@@H](C(=O)Nc1ccccc1)c1ccccc12`, it took 1.2 nM to reach a half-maximal effect in assay [1] (EC50).

Take `CC(C)(N)C(=O)N[C@H](CCCc1ccccc1)C(=O)N1CCC2(CC1)C[C@@H](C(=O)NCCCO)c1ccccc12`: the half-maximal effective concentration (EC50) (in general, the concentration needed to bring the measured effect to its halfway point) in assay [1] was 0.41 nM.

`CC(C)(N)C(=O)N[C@H](COCc1ccccc1)C(=O)N1CCC2(CC1)CN(S(C)(=O)=O)c1ccccc12` [IBUTAMOREN] displayed an EC50 in assay [1] of 1.5 nM. Against the preceding compound, the EC50 is about 3.7-fold higher.

`CC(C)(N)C(=O)N[C@H](CCCc1ccccc1)C(=O)N1CCC2(CC1)C[C@H](C(=O)NCCCO)c1ccccc12` had a 50% effective concentration (EC50) in assay [1] of 0.85 nM.

`CCNC(=O)[C@@H]1CC2(CCN(C(=O)[C@@H](CCCc3ccccc3)NC(=O)C(C)(C)N)CC2)c2ccccc21` gave an EC50 in assay [1] of 0.9 nM. The EC50 values of the last two compounds are within 1.5-fold of each other.

Consider `CC(C)(N)C(=O)N[C@H](CCCc1ccccc1)C(=O)N1CCC2(CC1)C[C@H](C(=O)NCCO)c1ccccc12`, for which it took 0.45 nM to reach a half-maximal effect in assay [1] (EC50).

Regarding `CC(C)(N)C(=O)N[C@H](CCCc1ccccc1)C(=O)N1CCC2(CC1)C[C@@H](C(=O)NCCCCO)c1ccccc12`, in assay [1], a half-maximal response (EC50) required 0.44 nM. The EC50 values of the last two compounds are within 1.5-fold of each other.

`CCNC(=O)[C@H]1CC2(CCN(C(=O)[C@@H](CCCc3ccccc3)NC(=O)C(C)(C)N)CC2)c2ccccc21` gave an EC50 in assay [1] of 2.1 nM.

Take `CC(C)(N)C(=O)N[C@H](CCCc1ccccc1)C(=O)N1CCC2(CC1)C[C@@H](C(=O)NCCNS(C)(=O)=O)c1ccccc12`: the EC50 in assay [1] was 0.21 nM.

For `CNC(=O)[C@@H]1CC2(CCN(C(=O)[C@@H](CCCc3ccccc3)NC(=O)C(C)(C)N)CC2)c2ccccc21`, the midpoint of the response in assay [1], the EC50, lay at 0.4 nM.

Regarding `CC(C)(N)C(=O)N[C@H](CCCc1ccccc1)C(=O)N1CCC2(CC1)C[C@@H](C(N)=O)c1ccccc12.Cl`, the Fold change in assay [2] was found to be 4. Further, in assay [1], it took 0.09 nM to reach a half-maximal effect (EC50).

`CC(C)NC(=O)[C@@H]1CC2(CCN(C(=O)[C@@H](CCCc3ccccc3)NC(=O)C(C)(C)N)CC2)c2ccccc21` had an EC50 in assay [1] of 0.3 nM.

`CNC(=O)[C@H]1CC2(CCN(C(=O)[C@@H](CCCc3ccccc3)NC(=O)C(C)(C)N)CC2)c2ccccc21`: the concentration giving a half-maximal response (EC50) in assay [1] turned out to be 3.8 nM.

Take `CCCNC(=O)[C@@H]1CC2(CCN(C(=O)[C@@H](CCCc3ccccc3)NC(=O)C(C)(C)N)CC2)c2ccccc21.Cl`: the Fold change in assay [3] and in assay [4] was 4 throughout. For the same compound, in assay [1], the concentration giving a half-maximal response (EC50) turned out to be 0.15 nM.

In assay [1], `CC(C)(N)C(=O)N[C@H](CCCc1ccccc1)C(=O)N1CCC2(CC1)C[C@H](C(N)=O)c1ccccc12` came in with an EC50 of 0.35 nM.

Take `CC(C)(N)C(=O)N[C@H](CCCc1ccccc1)C(=O)N1CCC2(CC1)C[C@@H](C(=O)NCCO)c1ccccc12.Cl`: the Fold change in assay [5] is 4. The compound also returned an EC50 in assay [1] of 0.51 nM.

Compound `CC(C)(N)C(=O)N[C@H](CCCc1ccccc1)C(=O)N1CCC2(CC1)C[C@H](C(=O)NCCCCO)c1ccccc12` had a concentration for a half-maximal effect (EC50) in assay [1] of 0.73 nM.
